Assay results published in patent US7569695B2, “Dyes for the detection or quantification of desirable target molecules” (Enzo Life Sciences, Inc., priority 2005, dated 2009).

What was measured:
Assay type in all cases: biochemical
[1] = tested on: 78 bp amplicon of the anti-sense C construct; assay: Amplification on the Light Cycler in the presence of Dye 122 and 109a, 19 cycles (Example 35)
Description: A target template was amplified on the Light Cycler (Roche) in the presence of various amounts of SYBR Green and Dye 122 from Example 32. In addition, a byproduct from the silica gel chromatography of Dye 109 in step (g) of Example 14 was also used. This compound is believed to have a single protonation of one of the amines of Dye 109 and as such will be termed Dye 109a. The stock of Dye 122 was OD=200 measured at 488 nm and the stock of Dye 109a was OD=200 measured at 498 nm. The template was a 1:50,000 dilution of the 78 bp amplicon of the anti-sense C construct described previously. • A master-mixture was made up of: • 350 µl of 2×PCR mix described in Example 33 • 14 l of 25 mM MgCl2 • 175.0 l of DEPC treated H2O • 7 l of 10 mg/ml BSA (New England Biolabs, Beverly, Mass.) • 7 l Taq polymease (Perkin Elmer)+7 l of TaqStart (Clontech)
2.0 l of target template+2.0 l of various dye dilutions were added to 16 µl of Master mixture, and then amplified as described previously in Example 33 except that the incubation at 45° C. for 10 minutes was eliminated since ung was not used for this series of amplifications. The amplification was stopped after 19 cycles. The results of this series of amplifications are seen in FIG. 3. […] For Dye 109a, similar features were seen where 1:10 was inhibitory (lane 18) and 1:30 was optimal (lanes 19 and 20).

[2] = tested on: 78 bp amplicon of the anti-sense C construct; assay: Amplification on the Light Cycler with closer series of dye dilutions, 17 cycles (Example 36); details: a fairly broad spectrum of dye dilutions
Experimental: A series of dilutions that were closer together was carried out for both Dye 109a and Dye 122. The target template was amplified on the Light Cycler and the template was the 1:50,000 dilution of the 78 bp amplicon of the anti-sense C construct described previously.
A master mixture was made up as described previously in Example 35.
2.0 l of target template (1:50,000 dilution of the antisense C amplicon)+2.0 l of various dye concentrations were added to 16 µl of Master mix and then amplified as described previously in Example 33 and stopping after 17 amplification cycles.

anti-sense C amplicon = assay: Amplification of various amounts of target with fixed dye levels, 29 cycles (Example 37)
Experimental: In the previous experiments, a fixed amount of target was amplified in the presence of varying level of dyes. The eventual use of these dyes is going to be with a fixed amount of dye and varying levels of targets. As such, an experiment was carried out using previously determined optimal levels of dyes and various amounts of input target (again using the anti-sense C as a model). • Dilution 1=1:100,000 • Dilution 2=1:1,000,000 • Dilution 3=1:10,000,000 • Dilution 4=1:100,000,000 • Dilution 5=1:1,000,000,000 • Dilution 6=1:10,000,000,000
Selected amounts of target template were amplified on the Light Cycler (Roche) in the presence of various amounts of Dye 122, Dye 109a and SYBR Green.
A master mixture was made up of: • 380 l of 2×PCR mix described in Example 33 • 15.2 l of 25 mM MgCl2 • 190.0 l of DEPC treated H2O • 7.6 l of 10 mg/ml BSA (New England Biolabs, Beverly, Mass.) • 7.6 l Taq polymease (Perkin Elmer)+7.6 l of TaqStart (Clontech)
2.0 l of target template (1:50,000 dilution of the antisense C amplicon)+2.0 l of various dye concentrations were added to 16 µl of Master mixture and amplified as described previously in Example 33 stopping after 29 cycles. Dye additions were from the 1:1000 dilution of SYBR Green, 1:30 of Dye 109a and 1:30 of Dye 122.
At the highest input level (Dil 2 1:1,000,000 dilution of amplicon) no evidence of amplification is seen in the sample without dye.

CN(C)CCN(C)C1=C/C(=C\c2sc3cc(S(=O)(=O)N4CCCCC4)ccc3[n+]2C)c2ccccc2N1c1ccccc1 [Dye 122] was tested, and the “amplification (gel analysis, FIG. 3)” value ([1]; 1:10 dilution of dye stock (OD=200)) was “inhibitory”, the “amplification (gel analysis, FIG. 3)” value ([1]; 1:30 dilution of dye stock (OD=200)) was “the best” and the “amplification (gel analysis, FIG. 3)” value ([1]; next dye dilutions (1:100 etc.)) was “less amplification”. For the same compound, the “amplification (gel analysis, FIG. 4)” value [2] was “strong enhancement effect”, the “amplification product (gel analysis, FIG. 5)” value (anti-sense C amplicon; Dil 2 (1:1,000,000) target input, 1:30 dilution of dye) was “strong prominent band” and the “amplification product (gel analysis, FIG. 5)” value (anti-sense C amplicon; target inputs diluted 10-100× more than Dil 2, 1:30 dilution of dye) was “visible bands”.
